COC(=O)/C=C(\C)NC(C(=O)[O-])c1ccc(O)cc1.[K+] (stereo not given)
Settings	solubility (mole fraction)
in ethanol, 278.22 K	0.000319
in ethanol, 283.26 K	0.000342
in ethanol, 288.21 K	0.000369
in ethanol, 293.04 K	0.0004
in ethanol, 298.07 K	0.000438
in ethanol, 303.29 K	0.000481
in ethanol, 308.21 K	0.000527
in ethanol, 313.09 K	0.000577
in ethanol, 318.23 K	0.000635
in ethanol, 323.11 K	0.000694
in methanol, 278.24 K	0.00281
in methanol, 283.28 K	0.00303
in methanol, 288.04 K	0.00325
in methanol, 293.35 K	0.0035
in methanol, 298.31 K	0.00375
in methanol, 302.97 K	0.00398
in methanol, 308.19 K	0.00426
in methanol, 313.32 K	0.00453
in methanol, 318.11 K	0.0048
in methanol, 322.45 K	0.00505
